Test results reported in article PMC6321168, “Comparative Study on Excretive Characterization of Main Components in Herb Pair Notoginseng-Safflower and Single Herbs by LC–MS/MS” (Pharmaceutics, 2018).

Assay: Fecal excretion study in rats after oral NS, SF or CNS (LC–MS/MS)
Type: in vivo
Conditions: rat feces
Protocol: The animal room was set at constant temperature of 20 ± 2 °C with humidity of 50 ± 20% and 12/12 h light/dark cycle.
Eighteen male rats were fasted for 12 h before starting the experiment. The rats were divided into three groups at random (n = 6) and received NS (60 mg/kg), SF (50 mg/kg), and NS (60 mg/kg) + SF (50 mg/kg), respectively, by oral gavage. The rats were placed in separate metabolic cages. The urine samples were collected at 0–2, 2–4, 4–6, 6–8, 8–12, 12–24, 24–36, 36–48, 48–72, 72–96, and 96–120 h. The feces samples were collected at 0–4, 4–8, 8–12, 12–24, 24–36, 36–48, 48–72, 72–96, and 96–120 h. The urine volume was recorded and the dry feces were measured for each collection period. Samples were stored at −80 °C until analysis.
Feces samples were homogenized in ultrapure water (1 g/15 mL), soaked for 30 min, ultrasonically extracted for 30 min and centrifuged at 9000 rpm for 8 min. An aliquot of 200 μL feces water extraction solution was mixed with 10 μL of IS and then extracted three times with water-saturated n-BuOH (150 μL). The upper organic phase was combined and evaporated to dryness using a ZLS-2 vacuum centrifugal concentrator. The residue was treated as the urine sample and a 1-μL aliquot was injected for LC–MS analysis.
Ultra fast liquid chromatography (UFLC) analysis was performed using a Shimadzu UFLC system (DGU-20A3R Degasser; LC-20AD pump; SIL-20AXR Autosampler; CTO-20AC Column Oven) (Nakagyo-Ku, Koyoto, Japan). […] Because of the different endogenous substances in the urine and feces samples, different elution gradients were used to alleviate the matrix effects for the analytes.
The mass spectrometric detection was performed on an ABSciex 4500 Qtrap mass spectrometer (ABSciex, Foster City, CA, USA) equipped with a negative electrospray ionization (ESI) interface using multiple reaction monitoring (MRM). The MS parameters were optimized under the selected ion monitoring conditions as follows: curtain gas, 35 psi; ionspray voltage, 4500 V; turbo gas temperature, 450 °C; GS1, 45 psi; GS2, 45 psi. All data were acquired and analyzed by Analyst software (Versions 1.6.2) from ABSciex.
The accumulative excretion percentage was calculated for each analyte as follows. Excretion at time (t) = [concentration of the analyte (ng/mL) at t] × total urine (or feces) volume (mL) at t. The cumulative excretion up to time t (mg) was expressed as a percent (%) cumulative excretion by dividing by the total amount of the analyte ingested (mg): % Cumulative Excretion = 100 × (Σt excretiont) total ingested.

concentration at 4 h (male, Sprague Dawley, oral CNS 110 mg/kg, 4 h): 0.204 ± 0.283 µg/mL
concentration at 8 h (male, Sprague Dawley, oral CNS 110 mg/kg, 8 h): 0.274 ± 0.065 µg/mL
concentration at 12 h (male, Sprague Dawley, oral CNS 110 mg/kg, 12 h): 0.164 ± 0.012 µg/mL
concentration at 24 h (male, Sprague Dawley, oral CNS 110 mg/kg, 24 h): 0.119 ± 0.051 µg/mL
concentration at 36 h (male, Sprague Dawley, oral CNS 110 mg/kg, 36 h): 0.653 ± 0.041 µg/mL
concentration at 48 h (male, Sprague Dawley, oral CNS 110 mg/kg, 48 h): 0.658 ± 0.072 µg/mL
concentration at 72 h (male, Sprague Dawley, oral CNS 110 mg/kg, 72 h): 0.153 ± 0.072 µg/mL
concentration at 96 h (male, Sprague Dawley, oral CNS 110 mg/kg, 96 h): 0.035 ± 0.034 µg/mL
concentration at 4 h (male, Sprague Dawley, oral NS 60 mg/kg, 4 h): 0.752 ± 0.079 µg/mL
concentration at 8 h (male, Sprague Dawley, oral NS 60 mg/kg, 8 h): 0.605 ± 0.022 µg/mL
concentration at 12 h (male, Sprague Dawley, oral NS 60 mg/kg, 12 h): 0.602 ± 0.049 µg/mL
concentration at 24 h (male, Sprague Dawley, oral NS 60 mg/kg, 24 h): 0.67 ± 0.034 µg/mL
concentration at 36 h (male, Sprague Dawley, oral NS 60 mg/kg, 36 h): 0.505 ± 0.014 µg/mL
concentration at 48 h (male, Sprague Dawley, oral NS 60 mg/kg, 48 h): 0.704 ± 0.026 µg/mL
concentration at 72 h (male, Sprague Dawley, oral NS 60 mg/kg, 72 h): 0.122 ± 0.005 µg/mL
concentration at 96 h (male, Sprague Dawley, oral NS 60 mg/kg, 96 h): 0.017 ± 0.001 µg/mL
concentration at 120 h (male, Sprague Dawley, oral NS 60 mg/kg, 120 h): 0.015 ± 0.002 µg/mL
Accumulative excretion amount (oral CNS 110 mg/kg, 4 h): 2.579 ± 3.701 µg
Accumulative excretion percentage (oral CNS 110 mg/kg, 4 h): 0.343±0.491%
Excretion amount (oral CNS 110 mg/kg, 4 h): 2.579 ± 3.701 µg
Accumulative excretion amount (oral CNS 110 mg/kg, 8 h): 6.687 ± 3.535 µg
Accumulative excretion percentage (oral CNS 110 mg/kg, 8 h): 0.883±0.462%
Excretion amount (oral CNS 110 mg/kg, 8 h): 4.108 ± 1.195 µg
Accumulative excretion amount (oral CNS 110 mg/kg, 12 h): 9.145 ± 3.524 µg
Accumulative excretion percentage (oral CNS 110 mg/kg, 12 h): 1.204±0.465%
Excretion amount (oral CNS 110 mg/kg, 12 h): 2.459 ± 0.753 µg
Accumulative excretion amount (oral CNS 110 mg/kg, 24 h): 11.000 ± 3.256 µg
Accumulative excretion percentage (oral CNS 110 mg/kg, 24 h): 1.453±0.432%
Excretion amount (oral CNS 110 mg/kg, 24 h): 1.855 ± 1.046 µg
Accumulative excretion amount (oral CNS 110 mg/kg, 36 h): 20.700 ± 5.415 µg
Accumulative excretion percentage (oral CNS 110 mg/kg, 36 h): 2.724±0.715%
Excretion amount (oral CNS 110 mg/kg, 36 h): 9.700 ± 2.660 µg
Accumulative excretion amount (oral CNS 110 mg/kg, 48 h): 30.478 ± 7.801 µg
Accumulative excretion percentage (oral CNS 110 mg/kg, 48 h): 4.011±1.032%
Excretion amount (oral CNS 110 mg/kg, 48 h): 9.778 ± 2.743 µg
Accumulative excretion amount (oral CNS 110 mg/kg, 72 h): 32.881 ± 8.515 µg
Accumulative excretion percentage (oral CNS 110 mg/kg, 72 h): 4.322±1.123%
Excretion amount (oral CNS 110 mg/kg, 72 h): 2.403 ± 1.477 µg
Accumulative excretion amount (oral CNS 110 mg/kg, 96 h): 33.451 ± 8.722 µg
Accumulative excretion percentage (oral CNS 110 mg/kg, 96 h): 4.403±1.154%
Excretion amount (oral CNS 110 mg/kg, 96 h): 0.570 ± 0.568 µg
Accumulative excretion percentage (oral CNS 110 mg/kg, 120 h): 4.404±1.151%
Accumulative excretion amount (oral NS 60 mg/kg, 4 h): 10.755 ± 3.385 µg
Accumulative excretion percentage (oral NS 60 mg/kg, 4 h): 1.232±0.395%
Excretion amount (oral NS 60 mg/kg, 4 h): 10.755 ± 3.385 µg
Accumulative excretion amount (oral NS 60 mg/kg, 8 h): 19.476 ± 6.086 µg
Accumulative excretion percentage (oral NS 60 mg/kg, 8 h): 2.244± 0.706%
Excretion amount (oral NS 60 mg/kg, 8 h): 8.721 ± 2.813 µg
Accumulative excretion amount (oral NS 60 mg/kg, 12 h): 28.152 ± 8.861 µg
Accumulative excretion percentage (oral NS 60 mg/kg, 12 h): 3.232±1.024%
Excretion amount (oral NS 60 mg/kg, 12 h): 8.676 ± 2.808 µg
Accumulative excretion amount (oral NS 60 mg/kg, 24 h): 37.713 ± 11.637 µg
Accumulative excretion percentage (oral NS 60 mg/kg, 24 h): 4.331±1.342%
Excretion amount (oral NS 60 mg/kg, 24 h): 9.562 ± 2.795 µg
Accumulative excretion amount (oral NS 60 mg/kg, 36 h): 45.004 ± 14.004 µg
Excretion amount (oral NS 60 mg/kg, 36 h): 7.290 ± 2.427 µg
Accumulative excretion amount (oral NS 60 mg/kg, 48 h): 55.154 ± 17.338 µg
Accumulative excretion percentage (oral NS 60 mg/kg, 48 h): 6.332±1.991%
Excretion amount (oral NS 60 mg/kg, 48 h): 10.151 ± 3.361 µg
Accumulative excretion amount (oral NS 60 mg/kg, 72 h): 56.907 ± 17.892 µg
Accumulative excretion percentage (oral NS 60 mg/kg, 72 h): 6.534±2.048%
Excretion amount (oral NS 60 mg/kg, 72 h): 1.753 ± 0.562 µg
Accumulative excretion amount (oral NS 60 mg/kg, 96 h): 57.148 ± 17.967 µg
Accumulative excretion percentage (oral NS 60 mg/kg, 96 h): 6.563±2.059%
Excretion amount (oral NS 60 mg/kg, 96 h): 0.241 ± 0.076 µg
Accumulative excretion amount (oral NS 60 mg/kg, 120 h): 57.371 ± 18.037 µg
Accumulative excretion percentage (oral NS 60 mg/kg, 120 h): 6.589±2.068%
Excretion amount (oral NS 60 mg/kg, 120 h): 0.223 ± 0.076 µg
SMILES: CC(C)=CCC[C@](C)(O[C@@H]1O[C@H](CO)[C@@H](O)[C@H](O)[C@H]1O)[C@H]1CC[C@]2(C)[C@@H]1[C@H](O)C[C@@H]1[C@@]3(C)CC[C@H](O[C@@H]4O[C@H](CO)[C@@H](O)[C@H](O)[C@H]4O[C@@H]4O[C@H](CO)[C@@H](O)[C@H](O)[C@H]4O)C(C)(C)[C@@H]3CC[C@]12C [ginsenoside Rd]
